ChEMBL document CHEMBL5360641, “4'-Ethynyl-2'-deoxy-2'-β-fluoro-2-fluoroadenosine: A Highly Potent and Orally Available Clinical Candidate for the Treatment of HIV-1 Infection” (J Med Chem, 2023)

Key:
[1] = Apparent oral clearance in Sprague-Dawley rat at 10 mg/kg, IG measured upto 24 hrs by LC-MS/MS analysis; format: ADME, organism-based; conditions: in vivo
[2] = Half life in Sprague-Dawley rat at 10 mg/kg, IG measured upto 24 hrs by LC-MS/MS analysis; format: ADME, organism-based; conditions: in vivo, po
[3] = test system: Human immunodeficiency virus 1; assay: Antiviral activity against HIV1 VSV-G pseudotyped virus infected in human HEK293T cells assessed as inhibition of viral growth preincubated for 3 hrs followed by washout and further incubated with compound for 72 hrs by luciferase assay; format: functional, organism-based; conditions: Human immunodeficiency virus 1, HEK-293T
[4] = Toxicity in Sprague-Dawley rat assessed as effect on body weight at 10 to 30 mg/kg, po administered once daily for 4 weeks and measured after 24 hrs post last dose; format: organism-based; conditions: in vivo, 696 h, dose 10-30 mg/kg
[5] = Toxicity in Sprague-Dawley rat assessed as effect on food consumption at 10 to 30 mg/kg, po administered once daily for 4 weeks and measured after 24 hrs post last dose; format: organism-based; conditions: in vivo, 696 h, dose 10-30 mg/kg
[6] = AUC (0 to t) in female Sprague-Dawley rat at 30 mg/kg, IG measured at 24 hrs LC-MS/MS analysis; format: ADME, organism-based; design: dose 30 mg/kg, time 24 hrs, route ig; conditions: in vivo, po
[7] = AUC (0 to t) in male Sprague-Dawley rat at 10 mg/kg, IG measured at 0.5 hrs LC-MS/MS analysis; format: ADME, organism-based; design: dose 10 mg/kg, time 0.5 hrs, route ig; conditions: in vivo, po
[8] = Drug uptake in Beagle dog PBMC cells assessed as ((2R,3R,4S,5R)-5-(6-amino-2-fluoro-9H-purin-9-yl)-2-ethynyl-4-fluoro-3-hydroxytetrahydrofuran-2-yl)methyl tetrahydrogen triphosphate formation at 6 to 12 mg/kg, po measured at 2 to 168 hrs by LC-MS/MS analysis; format: ADME, organism-based, Canis lupus familiaris; conditions: in vivo, dose lower 6 mg/kg, time lower 2 hrs, dose upper 12 mg/kg, time upper 168 hrs
[9] = test system: Human immunodeficiency virus 1; assay: Antiviral activity against HIV-1 harboring protease V82F/[…] double mutant infected in human C8166 cells assessed as inhibition of viral replication by measuring reduction in p24 antigen level incubated for 3 to 7 days by ELISA analysis; format: functional, organism-based; conditions: Human immunodeficiency virus 1, C8166
[10] = Half life in Sprague-Dawley rat at 5 mg/kg, iv measured upto 24 hrs by LC-MS/MS analysis; format: ADME, organism-based; conditions: in vivo
[11] = AUC (0 to t) in male Sprague-Dawley rat at 100 mg/kg, IG measured at 24 hrs LC-MS/MS analysis; format: ADME, organism-based; design: time 24 hrs, dose 100 mg/kg, route ig; conditions: in vivo, po
[12] = Toxicity in Sprague-Dawley rat assessed as death at 10 to 30 mg/kg, po administered once daily for 4 weeks and measured after 24 hrs post last dose; format: organism-based; conditions: in vivo, 696 h, dose 10-30 mg/kg
[13] = AUC (0 to t) in Sprague-Dawley rat at 5 mg/kg, IG measured upto 24 hrs by LC-MS/MS analysis; format: ADME, organism-based; design: time < 24 hrs, dose 5 mg/kg, route ig; conditions: in vivo, po
[14] = Cmax in Sprague-Dawley rat at 10 mg/kg, IG measured upto 24 hrs by LC-MS/MS analysis; format: ADME, organism-based; design: time < 24 hrs, dose 10 mg/kg, route ig; conditions: in vivo, po
[15] = Selectivity index, ratio of CC50 for cytotoxicity against HEK293T cells assessed as reduction in cell viability by MTT assay to EC50 for antiviral activity against HIV1 VSV-G pseudotyped virus infected in human HEK293T cells assessed as inhibition of viral growth; format: toxicity, cell-based; conditions: read-out: Ratio CC50/EC50
[16] = AUC (0 to t) in Sprague-Dawley rat at 2.5 mg/kg, IG measured upto 24 hrs by LC-MS/MS analysis; format: ADME, organism-based; design: time < 24 hrs, dose 2.5 mg/kg, route ig; conditions: in vivo, po
[17] = Bioavailability in Sprague-Dawley rat at 5 mg/kg, IG measured upto 24 hrs by LC-MS/MS analysis; format: ADME, organism-based; conditions: in vivo, po
[18] = Cytotoxicity against HEK293T cells assessed as reduction in cell viability by MTT assay; format: toxicity, cell-based, HEK-293T; conditions: human
[19] = Acute toxicity in Sprague-Dawley rat assessed as death at 500 to 2000 mg/kg, IG measured for 14 days; format: organism-based; conditions: in vivo, po, 336 h, dose 500-2000 mg/kg, time 14 day
[20] = test system: Human immunodeficiency virus 1; assay: Antiviral activity against HIV1 A17 infected in human C8166 cells assessed as inhibition of viral replication by measuring reduction in p24 antigen level incubated for 3 to 7 days by ELISA analysis; format: functional, organism-based; conditions: Human immunodeficiency virus 1, A17, C8166
[21] = test system: Human immunodeficiency virus 1; assay: Antiviral activity against HIV-1 harboring integrase G140S/Q148H double mutant infected in human TZM-bl cells assessed as inhibition of viral replication incubated for 3 to 7 days by luciferase assay; format: functional, organism-based; conditions: Human immunodeficiency virus 1, TZM-bl
[22] = test system: Human immunodeficiency virus 1; assay: Antiviral activity against HIV1 IIIB infected in human C8166 cells assessed as inhibition of syncytia formation incubated for 3 to 7 days by syncytia assays; format: functional, organism-based; conditions: Human immunodeficiency virus 1, IIIB
[23] = AUC (0 to t) in female Sprague-Dawley rat at 100 mg/kg, IG measured at 0.5 hrs LC-MS/MS analysis; format: ADME, organism-based; design: time 0.5 hrs, dose 100 mg/kg, route ig; conditions: in vivo, po
[24] = Half life in Sprague-Dawley rat at 2.5 mg/kg, IG measured upto 24 hrs by LC-MS/MS analysis; format: ADME, organism-based; conditions: in vivo, po
[25] = AUC (0 to t) in male Sprague-Dawley rat at 100 mg/kg, IG measured at 0.5 hrs LC-MS/MS analysis; format: ADME, organism-based; design: dose 100 mg/kg, time 0.5 hrs, route ig; conditions: in vivo, po
[26] = Toxicity in Sprague-Dawley rat assessed as effect on blood biochemistry at 10 to 30 mg/kg, po administered once daily for 4 weeks and measured after 24 hrs post last dose; format: organism-based; conditions: in vivo, 696 h, dose 10-30 mg/kg
[27] = Acute toxicity in Sprague-Dawley rat assessed as effect on liver damage at 500 to 2000 mg/kg, IG measured on day 15; format: organism-based; conditions: in vivo, po, 360 h, dose 500-2000 mg/kg, time 15 day
[28] = Apparent oral clearance in Sprague-Dawley rat at 5 mg/kg, IG measured upto 24 hrs by LC-MS/MS analysis; format: ADME, organism-based; conditions: in vivo
[29] = Acute toxicity in Sprague-Dawley rat assessed as effect on food intake at 500 to 2000 mg/kg, IG measured for 14 days; format: organism-based; conditions: in vivo, po, 336 h, dose 500-2000 mg/kg, time 14 day
[30] = Tmax in Sprague-Dawley rat at 10 mg/kg, IG measured upto 24 hrs by LC-MS/MS analysis; format: ADME, organism-based; conditions: in vivo, po
[31] = Bioavailability in Sprague-Dawley rat at 2.5 mg/kg, IG measured upto 24 hrs by LC-MS/MS analysis; format: ADME, organism-based; conditions: in vivo, po
[32] = Cmax in Sprague-Dawley rat at 5 mg/kg, iv measured upto 24 hrs by LC-MS/MS analysis; format: ADME, organism-based; design: time < 24 hrs, dose 5 mg/kg, route iv; conditions: in vivo

C#C[C@]1(CO)O[C@@H](n2cnc3c(N)nc(F)nc32)[C@@H](F)[C@@H]1O
CL/F [1]: 21.2 mL/min/kg | half-life [2]: 2.3 h | EC50 [3]: 0.9 nM | Activity [4]: Non-Toxic | Activity [5]: Non-Toxic | AUC(0-t) at 24 h [6]: 26500 ng·h/mL | AUC(0-t) at 0.5 h [7]: 6860 ng·h/mL | Drug metabolism [8]: Metabolite_Detected | EC50 [9]: 6.75 nM | half-life [10]: 1.8 h | AUC(0-t) at 24 h [11]: 85800 ng·h/mL | Activity [12]: Non-Toxic | AUC(0-t) at 24 h [13]: 3630 ng·h/mL | Cmax [14]: 2110 ng/mL | selectivity ratio [15]: > 111000 | AUC(0-t) at 24 h [16]: 1720 ng·h/mL | bioavailability [17]: 67.5% | CC50 [18]: > 100000 nM | Activity [19]: Non-Toxic | EC50 [20]: 1.53 nM | EC50 [21]: 2.84 nM | EC50 [22]: 3.51 nM | AUC(0-t) at 0.5 h [23]: 87400 ng·h/mL | half-life [24]: 2 h | AUC(0-t) at 0.5 h [25]: 89300 ng·h/mL | Activity [26]: Non-Toxic | Activity [27]: Non-Toxic | CL/F [28]: 25 mL/min/kg | Activity [29]: Non-Toxic | Tmax [30]: 1 h | bioavailability [31]: 64.2% | Cmax [32]: 10200 ng/mL
